Measurements published in patent US20040234480A1, “Use of oligomeric proanthrocyanidins” (priority 2001, published 2004).

Assays:
Xanthin oxidase = Xanthin oxidase (Homo sapiens, UniProt P47989); assay: Method D: Xanthin oxidase, superoxide anion by NBT reduction, optical density at 490 nm; type: biochemical
Source text: Method D Xanthin oxidase is an enzyme which is released as a result of oxidative stress and catabolizes the degradation of the purine bases adenine and guanine into […] and superoxide anions. The latter dismutate spontaneously or in the presence of superoxide dismutase into hydrogen peroxide and oxygen.
The amount of superoxide anion can be determined by NBT reduction via the optical density at 490 nm. It was investigated whether fewer superoxide anions are generated or more anions are destroyed in the presence of the test substances.
(§1) The results are summarized in Table 1; in each case the EC50 values are given in % (w/v).

[1] = Method C: deoxyribose oxidation in the absence of EDTA (inactive iron complexes)
Source text: as §1

[2] = Method A: diphenylpicrylhydrazyl free radical, optical density at 513 nm; details: DPPH radical
Source text: Method A In a first method, use was made of diphenylpicrylhydrazyl (DPPH^o), a relatively stable free radical which produces a purple-colored solution. The parameter determined was the optical density (DO) at 513 nm. The results are summarized in Table 1; in each case the EC50 values are given in % (w/v).

[3] = Method B: hydroxyl radicals from hydrogen peroxide with iron(II) ions and EDTA, deoxyribose oxidation
Source text: Method B In the presence of iron(II)ions and EDTA, hydroxyl radicals were liberated from hydrogen peroxide and used for the oxidation of deoxyribose. The oxidation product forms a pink-colored compound with thiobarbituric acid. Its concentration corresponds to the optical density at 532 nm. It was investigated whether less deoxyribose is oxidized, i.e. fewer free radicals are liberated, in the presence of the test products. The results are summarized in Table 1; in each case the EC50 values are given in % (w/v).

Sequence of Xanthin oxidase (P47989 whole entry): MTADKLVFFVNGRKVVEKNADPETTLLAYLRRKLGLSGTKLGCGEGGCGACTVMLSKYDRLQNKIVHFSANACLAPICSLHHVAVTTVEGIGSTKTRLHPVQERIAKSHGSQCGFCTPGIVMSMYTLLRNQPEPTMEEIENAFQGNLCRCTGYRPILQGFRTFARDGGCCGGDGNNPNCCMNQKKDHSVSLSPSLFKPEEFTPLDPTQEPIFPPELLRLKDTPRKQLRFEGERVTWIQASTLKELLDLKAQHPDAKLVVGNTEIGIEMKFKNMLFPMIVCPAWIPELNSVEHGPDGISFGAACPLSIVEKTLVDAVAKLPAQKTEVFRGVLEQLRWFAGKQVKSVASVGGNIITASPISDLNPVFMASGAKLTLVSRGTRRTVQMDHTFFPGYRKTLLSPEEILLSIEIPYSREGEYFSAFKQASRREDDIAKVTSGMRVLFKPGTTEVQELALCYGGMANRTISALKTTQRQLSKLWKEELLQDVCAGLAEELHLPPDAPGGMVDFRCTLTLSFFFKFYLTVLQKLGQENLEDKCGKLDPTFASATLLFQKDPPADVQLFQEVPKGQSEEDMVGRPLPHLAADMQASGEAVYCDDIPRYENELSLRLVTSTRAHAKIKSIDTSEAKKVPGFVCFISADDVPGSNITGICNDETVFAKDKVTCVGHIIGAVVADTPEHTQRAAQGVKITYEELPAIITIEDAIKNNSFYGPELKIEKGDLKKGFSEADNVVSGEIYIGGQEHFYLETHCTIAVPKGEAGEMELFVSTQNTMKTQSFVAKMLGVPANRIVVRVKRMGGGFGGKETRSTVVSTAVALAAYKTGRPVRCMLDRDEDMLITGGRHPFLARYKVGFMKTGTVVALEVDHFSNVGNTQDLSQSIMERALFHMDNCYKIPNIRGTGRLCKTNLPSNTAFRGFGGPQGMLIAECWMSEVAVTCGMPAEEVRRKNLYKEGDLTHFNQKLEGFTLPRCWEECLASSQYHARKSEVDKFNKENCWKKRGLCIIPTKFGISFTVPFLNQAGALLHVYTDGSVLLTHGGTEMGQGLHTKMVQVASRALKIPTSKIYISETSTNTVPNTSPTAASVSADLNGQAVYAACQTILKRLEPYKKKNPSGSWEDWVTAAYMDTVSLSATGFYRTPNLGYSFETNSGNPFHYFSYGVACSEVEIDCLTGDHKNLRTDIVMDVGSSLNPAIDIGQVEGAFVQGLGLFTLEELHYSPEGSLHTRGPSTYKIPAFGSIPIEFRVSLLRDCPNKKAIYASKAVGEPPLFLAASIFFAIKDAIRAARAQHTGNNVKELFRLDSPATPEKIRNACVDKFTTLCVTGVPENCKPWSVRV

| EC50, test method D (Xanthin oxidase) | Compound | EC50 (Xanthin oxidase; read-out: EC50, test method D (converted)) | EC50, test method C [1] | EC50, test method A [2] | EC50, test method B [3] |
| --- | --- | --- | --- | --- | --- |
| – | O=C1O[C@H]([C@@H](O)CO)C(O)=C1O [Ascorbic acid] | 33.6 mM | 0.9% (w/v) | 0.0013 % (w/v) | 0.2607% (w/v) |
| no | Tocopherol | – | – | 0.0067 % (w/v) | – |
